From US12365710B2, “HMGB1 protein derivatives for the removal of biofilms” (RESEARCH INSTITUTE AT NATIONWIDE CHILDREN'S HOSPITAL, priority 2018, dated 2025)

System: NTHI biofilm
Assay: in vitro disruption of established biofilms, CLSM and COMSTAT
Type: cell-based, Nontypeable Haemophilus influenzae
Conditions: 200 nM added at 24 h, 16 h exposure
Description: FIGS. 5A-5E: Anti-biofilm effect of HMGB1 variants on high priority bacterial pathogens. Indicated HMGB1 variants or antibodies against DNABII proteins (α-1HFEc 1gG, 1 μM) were added at 24 h to the respective preformed bacterial biofilms, in vitro. After 16 h of Incubation, biofilms were stained with LIVE/DEAD®, then visualized via confocal laser scanning microscopy. Images were analyzed by COMSTAT to calculate average thickness and comparison to control was plotted. (FIG. 5A) Full-length HMGB1 isoforms (200 nM unless otherwise indicated) added to UPEC, B. cenocepacia, NTHI, or ESKAPE pathogens. 800 nM rHMGB1 and 200 nM mHMGB1 were added for S. aureus (ESKAPE). 800 nM rHMGB1, 800 nM mHMGB1, or 3.3 μM of α-1HFEc 1gG were added for E. faecium (ESKAPE) and were incubated for 1 h as opposed to 16 h to avoid potential degradation by E. faecium proteases. (FIG. 5B) Representative images of UPEC biofilms incubated with increasing concentrations of rHMGB1. (FIG. 5C) Individual domains of HMGB1 (200 nM) were tested for anti-biofilm activity as above (dotted line indicates control values). Bars represent the SEM. Statistical significance compared to control was assessed with unpaired t-tests, *P<0.05. […] (FIGS. 5D-5E) HMGB1 and variants disrupt preformed Klebsiella pneumoniae biofilms. rHMGB1, HMGB1 C45S (mHMGB1), bovine HMGB1 (bHMGB1), B box, B Box C106S (mB Box), A Box, and A+B Box were added (200 nM) at 24 h to preformed K. pneumoniae biofilms. After 16 h of incubation, biofilms were stained with LIVE/DEAD®, then visualized via confocal laser scanning microscopy. Images were analyzed by COMSTAT to calculate average thickness and total biomass. Error bars represent the SEM. ***P<0.0001; ns=not significant.
HMGB1 disrupts pathogenic biofilms: To test the effect of HMGB1 on bacterial biofilms (FIG. 5), Applicant cloned (IMPACT®, NEB Ipswich, MA), expressed (in E. coli), and purified (heparin sepharose chromatography to >95% purity) tagless human recombinant HMGB1 (rHMGB1) and an engineered C45 S variant (mHMGB1) that mimics the reduced form of HMGB1. rHMGB1 readily forms an intramolecular disulfide bond between C23 and C45 that contributes to pro-inflammatory activity whereas mHMGB1 cannot. These HMGB1 isoforms were evaluated for ability to disrupt established biofilms (formed for 24 h prior to addition). After a 16 h exposure to a single dose of rHMGB1 (200 nM; ˜25-fold greater than typical sepsis serum concentration, but not able to directly induce sepsis), biofilms formed by a wide variety of high priority species were stained with LIVE/DEAD®, analyzed using confocal laser scanning microscopy (CLSM) and COMSTAT analysis and compared to control biofilms. […] Preliminary analysis of PTMs by LC-MS/MS analysis (MS Bioworks, LLC Ann Arbor, MI) indicated minimal modification of both rHMGB1 and nHMGB1 (<20% of the observed peptides had any given PTM, FIG. 1C). […] Thus, while there are intrinsic differences in sensitivity among pathogens, the biofilms formed by all of the tested high priority pathogens were susceptible to a single dose of these non-antimicrobial compounds.
HMGB1 domain structure and anti-biofilm activity: Applicant then produced recombinant HMGB1 truncation variants, of 1) the A Box, a self-contained DNA-binding domain (residues 1-89); 2) an A-B Boxes construct (lacks the C tail; residues 1-185); and 3) the B Box (residues 80 to 176, FIGS. 1A and 1C). […]

rHMGB1: tagless human recombinant full length HMGB1 (1-215) expressed in E. coli
disruption of established NTHI biofilms: not as responsive

B1: B-linker Box: HMGB1 B Box with N- and C-terminal linker (80-179; 80 to 176 in b258), 97 amino acid (protein, UniProt P09429 80-179, looked up, fragment)
chain: PPKGETKKKFKDPNAPKRPPSAFFLFCSEYRPKIKGEHPGLSIGDVAKKLGEMWNNTAADDKQPYEKKAAKLKEKYEKDIAAYRAKGKPDAAKKGVVKAE
disruption of established NTHI biofilms: retained full anti-biofilm activity
